Measured values as given in patent publication US10238631B2, “Sesquiterpene derivatives and their use in inflammation or cancer treatment” (Academia Sinica, priority 2014, dated 2019).
Values joined by “and” are separate entries in the source; they are usually repeats but may differ in a detail not shown here. Equal values may be shown once.

Legend:
[1] = system: A375-R acquired vemurafenib resistance melanoma cells; experiment: MTT cell viability assay, PLX4032-resistant A375-R; format: cell-based, human; details: Homo sapiens; 72 h, MTT
Description: A375-R, acquired vemurafenib resistance melanoma cell was generated from A375 parental cell and grown in same conditions as A375 cell.
Normal or cancer cells (2×10^3 to 1×10^4 cells/well) were seeded in 96-well plate for overnight and treated with different compounds for 24 h to 72 h. Cells growth were determined by MTT-based colorimetric assays according to. Viability of the test cells treated with vehicle (0.5% DMSO) only was defined as 100% viable. Survival of cells after treatment with DETDs was calculated using the following formula: viable cell number (%)=OD570 (treated cell culture)/OD570 (vehicle control)×100.
To study the mechanisms underlying how DETD-35 overcomes acquired resistance to BRAF inhibitor, we generated A375 cell line resistant to PLX4032 (designated A375-R). Briefly, A375 melanoma cells were seeded in T75 plate and treated with ascending concentration of PLX4032 (20, 50, 100, 250, 500, 1000, 2000 nM) through approximately 2 months and 20 passages.

A375 melanoma cells = experiment: Compound-drug combination assay with PLX4032; format: cell-based, human; details: DETD-35 0.1 to 1 μM, PLX4032 10 to 100 nM, 72 h
Description: (§1) Cell proliferation was measured by MTT assay. Isobologram analysis and Chou-Talalay method was used to determine the effects of compound drug combinations. The interaction of DETDs and PLX4032 or PTX was determined by the combination index (CI), and the CI plot was generated using CompuSyn software. The combined effects of two compounds can be categorized as follows: CI=1 indicates additive interaction, CI<1 indicates synergism, and CI>1 indicates antagonism.
To investigate whether or not DETD-35 show synergism with PLX4032 against A375 melanoma cells, we performed anti-proliferation assay using MTT reagent to obtain IC50 of each compound. […] The synergistic effect was quantified by combination index (CI) analysis as stated above.

[2] = system: phospho-MEK and phospho-ERK in A375-R cells; experiment: Western blot of MAPK signaling, A375-R; format: cell-based, human
Description: Total cellular proteins were prepared from test cells as previously described. Protein concentration was determined by the Bradford method (Bio-Rad). Protein samples were resolved by 5% to 20% gradient SDS-PAGE and then underwent immunoblotting. Primary antibodies against ERK1/2 and GAPDH were from Santa Cruz Biotechnology (Santa Cruz, Calif., USA) and MEK, phospho-ERK1/2 and phospho-MEK were from Cell Signaling Technology (Danvers, Mass., USA). Appropriate horseradish peroxidase-conjugated secondary antibodies were used. Protein bands reacting to specific antibody were visualized by use of enhanced chemiluminescence (Amersham) with exposure to chemiluminescence light film (BioMax; Kodak Co.).

[3] = system: MDA-MB-231 lung metastasis; experiment: Lung metastasis of MDA-MB-231 cells in SCID mice; format: in vivo, mouse
Description: Female SCID mice (5 weeks old, average body weight 19.59±1.26 g) were assigned to 8 groups: PIX group (5 mg/kg paclitaxel), DETD-35-2 group (2 mg/kg DETD-35), DETD-35-10 group (10 mg/kg DETD-35). PTX-5+DETD-35-2 group (5 mg/kg paclitaxel and 2 mg/kg DETD-35 administration alternatively for eleven doses of paclitaxel (PTX) and ten doses of DETD-35 in total), tumor (vehicle) group (5% DMSO), and sham group (5% DMSO). Pre-DETD-35-10 group was the mice administered 10 mg/kg DETD-35 every two days for three doses before the i.v. injection of 1×10^6 MDA-MB-231 tumor cells at day 0. All other drug or compounds were administered i.p. every three days starting from day 1. At the end of experiment (day 71), the test mice were sacrificed by cervical dislocation. The lung, liver, kidney, and spleen organs were removed and recorded weights and calculated for organ index (% of organ weight/body weight). The number of tumor colonies on lungs of test mice was counted.

[4] = system: melanoma cell lines B16-F10, MeWo, A375, A2058, HTB-68; experiment: MTT cell viability assay, all melanoma cell lines; format: cell-based; details: 24 h, read-out: IC50 values over all types of melanoma cell lines
Summary of the method: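 Cells seeded at 2×10^3 to 1×10^4 cells/well overnight, then exposed to compounds for 24 h to 72 h. Growth measured by MTT colorimetric assay; viability expressed as OD570 treated/OD570 vehicle (0.5% DMSO) ×100.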

MDA-MB-231 mammary tumor = experiment: Orthotopic MDA-MB-231 mammary tumor growth in NOD/SCID mice; format: in vivo, mouse
Description: Mammary tumor response to DET analog (DETD-35) was studied using MDA-MB-231 cancer cell bearing NOD/SCID mice (6 weeks old). The mammary fat pad regions of mice were injected with 5×10^6 MDA-MB-231 cells in 100 μL (9.1 mg/mL) matrigel (Basement Membrane Matrix. Phenol Red-free) on day 0. Tumors were allowed to grow in the mice for 7 days, and then the animals were randomly assigned to three groups (n=5 per group): sham, tumor (vehicle) control and 10 mg/kg DETD-35 treatment group. DETD-35 was intraperitoneally […] injected every three days. The test mice were sacrificed by cervical dislocation at day 71, and the tumor were collected and measured for the volume (V) using calipers and calculated by the formula V=(L×W^2)/2, where L is the length and W is the width of tumor.

MDA-MB-231 cells = experiment: Compound-drug combination assay with PTX; format: cell-based, human; details: 0-4 μM compound, 0-25 nM PTX
Description: as §1
To investigate whether or not DETD-35 and DETD-39 act synergistically with PTX against MDA-MB-231 cell activity, anti-proliferation assay using MTT reagent was performed to obtain the IC60 value of each compound. […] Based on the IC60 values, DETD-35 or DETD-39 ranging from 0 to 4 μM and PIX from 0 to 25 nM were used for compound-drug combination study. Classic isobologram analysis and Chou-Talalay method were conducted to investigate the synergistic effect of compound and drug. Combination index (CI) was calculated with CalcuSyn software (Version 2.0, Biosoft) and expressed as CI vs. Fa (fraction affected). CI<1 indicates synergy; CI=1 indicates additive effect; and CI>1 indicates antagonism.

Compound: C=C1C(=O)O[C@H]2CC3=C[C@@H](C/C(C)=C/[C@@H](OC(=O)Cc4cccc5ccccc45)[C@H]12)OC3=O [DETD-35]
- IC50 [1]: 0.8 µM
- combination effect with PLX4032 (combination index) (A375 melanoma cells): acted synergistically
- effect on MAP kinases (phospho-MEK, phospho-ERK), A375-R [2]: inhibited reactivation of MAP kinases
- body weight ([3]; 2 mg/kg group): slightly lower than other groups with no statistical difference
- reduction of number of tumor foci in lungs vs tumor control ([3]; post-treatment, 2 mg/kg i.p. every three days, not statistically significant): 9%
- reduction of number of tumor foci in lungs vs tumor control ([3]; post-treatment, 10 mg/kg i.p. every three days): 50%
- reduction of number of tumor foci in lungs vs tumor control ([3]; pretreatment, 10 mg/kg every two days, three doses before tumor cell injection): 83%
- IC50 [4]: 1.6 to 9.9 µM and 2.5 to 6 µM
- effect on mouse body weight (MDA-MB-231 mammary tumor; 10 mg/kg i.p.): without affecting the mouse body weight
- fold decrease of tumor volume at day-71 vs tumor control (MDA-MB-231 mammary tumor; 10 mg/kg i.p.): 1.8 folds
- tumor growth vs control group (MDA-MB-231 mammary tumor; 10 mg/kg i.p. every three days, day-56): significantly delayed
- tumor volume at day-71 (MDA-MB-231 mammary tumor; 10 mg/kg i.p. every three days, tumor control 1268): 712 mm^3
- combination effect with PTX (isobologram, combination index) (MDA-MB-231 cells): acted synergistically
